Marks after values point to notes of the source that are not given here.

Test [1] has as its system COX-1/COX-2 protein ratio. Kind of test: COX-1/COX-2 protein ratio by scanning densitometry of western blots. The following applies: C8 0.31-1.24 µM in DMEM, IL-1β 20 h. The class given is cell-based, rabbit. The text has this:
As expected, COX-1 protein was detectable but COX-2 and iNOS proteins were undetectable in untreated control conditions (Fig. 6A). […] Consequently, the protein ratio of COX-1 to COX-2 was not modified by C8 (Fig. 6B). […] Results from one representative experiment in five are shown. (B) Intensities of the COX-1 and COX-2 immunoreactive bands evaluated by semi-quantitative scanning densitometry. Data represent the COX-1/COX-2 protein ratio and are expressed as relative arbitrary units, where the IL-1β-treated group represents 1. Values are means ± SEM (n = 5 independent determinations). No significant differences were found between the groups. […] Cell lysates were centrifuged for 15 min at 14000 rpm at 4°C and supernatants were collected. Protein concentrations were determined by the Bradford method by use of the Protein Assay dye reagent (Bio-Rad). Protein extracts (20 µg) were size-separated by SDS-PAGE in a 10% (w/v) polyacrylamide gel and electroblotted to a nitrocellulose membrane. Equal protein loading and transfer was confirmed by staining the membrane with Ponceau Red [0.2% (w/v) in H2O:acetic acid 99∶1]. […] Immunocomplexes were detected by an enhanced chemiluminescence kit (Amersham Bioscience). […] Semi-quantitative scanning densitometry involved use of the ImageJ program (NIH, USA).

For test [2], the system named is IL-1β-stimulated PGE2 secretion in articular chondrocytes. Kind of test: IL-1β-stimulated PGE2 secretion in articular chondrocytes (EIA). The following applies: for C8 inhibitory effect (%inhibition) on PGE2 secretion: DMEM with 2% FCS, 20 h; for decrease of PGE2 production induced by IL-1β: IL-1β 20 h. Format: cell-based, rabbit. On the procedure: We tested the effect of C8 on the IL-1β-stimulated secretion of PGE2 in chondrocytes. PGE2 synthesis takes place mainly in response to cell activation by IL-1β, and its generation accounts for many of the actions induced by this cytokine. In vitro, IL-1β induces the expression of COX-2 by chondrocytes, which results in increased PGE2 production. PGE2 release thus represents a powerful IL-1β- and PLA2-dependent inflammatory marker in our cell model. Chondrocytes were treated for 20 h with IL-1β alone or 1 h after the addition of C8. […] In DMEM alone, at concentrations of 0.31-, 0.62-, 0.94-, and 1.24-µM, C8 decreased the production of PGE2 induced by IL-1β by 59-, 58-, 74-, and 80-%, respectively (Fig. 4A). In DMEM supplemented with 0.1% BSA, at concentrations of 0.31-, 0.62-, 0.94-, 1.24-, 2.48-, and 4.96-µM, C8 decreased the production of PGE2 induced by IL-1β by 31-, 30-, 45-, 43-, 81-, and 92-%, respectively (Fig. 4B). In DMEM supplemented with 2% FCS, at concentrations of 0.31-, 0.62-, 0.94-, 1.24-, 2.48-, and 4.96-µM, C8 decreased the production of PGE2 induced by IL-1β by 26-, 48-, 49-, 54-, 68-, and 68-%, respectively (Fig. 4C). […] The effect of C8 was then evaluated at the extreme concentrations (0.31- and 4.96-µM) in DMEM supplemented with 2% FCS and containing decreasing (1-, 0.5-, and 0.25-ng/mL) IL-1β concentrations (Table 3). The anti-IL-1β inhibitory effect of C8 at 0.31 µM increases when IL-1β concentration decreases. […] This is probably due to the fact that at 4.96 µM, the inhibitory effect of C8 on IL-1β-induced PGE2 production is maximal. […] Thus, C8, but not C1, decreases the IL-1β-stimulated PGE2 secretion in a dose-dependent manner in the three culture medium compositions used.
Articular chondrocytes were isolated from 5-week-old Fauve de Bourgogne female rabbits (CPA, Orleans, France) and cultured at the first passage in conditions avoiding cell dedifferentiation as previously described. Cells were cultured at 37°C in 12-well plates in Ham's F-12 medium containing 10% FCS, 20 IU/mL penicillin, and 20 µg/mL streptomycin (all from Invitrogen) until nearly confluent. Then medium was replaced with DMEM (Invitrogen) containing 20 IU/mL penicillin, and 20 µg/mL streptomycin and, if necessary, 0.1% fatty acid free BSA (Sigma) or 2% FCS. At this time the C8 compound dissolved in DMSO (Sigma) was added to the medium (the amount of DMSO was kept at 1‰ (v/v) in all the wells). 1 h after the addition of C8, IL-1β (PeproTech) was added to the medium. Consequently, chondrocytes were incubated for 20 h with IL-1β and for 21 h with C8.
20 h after the addition of IL-1β to the chondrocytes, culture media were collected, and aliquots were stored at −80°C until PGE2 and nitrite quantification. PGE2 concentration in culture media was determined by use of an enzyme immunoassay (EIA) kit (PGE2 EIA Kit-monoclonal; Cayman Chemical). Nitrite concentration was determined by a spectrophotometry method based on the Griess reaction. Briefly, 200 µL of culture medium or sodium nitrite (NaNO2, Merck) standard dilutions were mixed with 100 µL Griess reagent [0.5% (w/v) sulphanilic acid (Merck), 0.05% (w/v) N(1-naphtyl)ethylenediamine (Merck), 30% (v/v) acetic acid, 1.5 N HCl] and incubated for 10 min at 50°C. The absorbance was measured at 540 nm.

As for `O=c1[nH]c(Cc2ccc(OCCCCCOc3cc4ccccc4c4ccccc34)cc2)no1` [C8], in test [1], the “effect on protein ratio of COX-1 to COX-2” value is on record as “not modified”. Also, the “C8 inhibitory effect (%inhibition) on PGE2 secretion” value in test [2] (C8 at 0.31 µM, IL-1β 0.25 ng/mL) is recorded as 67 %inhibition; in test [2] (C8 at 0.31 µM, IL-1β 0.5 ng/mL), 60 ^* %inhibition; in test [2] (C8 at 4.96 µM, IL-1β 0.25 ng/mL), 65 %inhibition; in test [2] (C8 at 4.96 µM, IL-1β 0.5 ng/mL) it was 67 ^* %inhibition; in test [2] (C8 at 4.96 µM, IL-1β 1 ng/mL), 68 ^*** %inhibition. The “decrease of PGE2 production induced by IL-1β” value (“decrease” for short) in test [2] (DMEM + 0.1% BSA, C8 0.31 µM) amounted to 31%; in test [2] (DMEM + 0.1% BSA, C8 0.62 µM), 30%; in test [2] (DMEM + 0.1% BSA, C8 0.94 µM), 45%; in test [2] (DMEM + 0.1% BSA, C8 1.24 µM), 43%; in test [2] (DMEM + 0.1% BSA, C8 2.48 µM), 81%; in test [2] (DMEM + 0.1% BSA, C8 4.96 µM), 92%. For the same molecule, the “decrease” value in test [2] (DMEM + 2% FCS, C8 0.31 µM) is 26%; in test [2] (DMEM + 2% FCS, C8 0.62 µM), 48%; in test [2] (DMEM + 2% FCS, C8 0.94 µM), 49%; in test [2] (DMEM + 2% FCS, C8 1.24 µM), 54%; in test [2] (DMEM + 2% FCS, C8 2.48 µM), 68%; in test [2] (DMEM + 2% FCS, C8 4.96 µM), 68%. Further, the “decrease” value in test [2] (DMEM alone, C8 0.31 µM) was 59%; in test [2] (DMEM alone, C8 0.62 µM) it was 58%; in test [2] (DMEM alone, C8 0.94 µM) it was 74%; in test [2] (DMEM alone, C8 1.24 µM), 80%. The “down-regulation of IL-1β-stimulated secretion of PGE2” value in test [2] (DMEM + 0.1% BSA, C8 4.96 µM) is recorded as “to the level of the control untreated condition”; in test [2] (DMEM + 2% FCS, C8 2.48 and 4.96 µM), “to the level of the control untreated condition”.
